Results from patent publication US7897543B2, “Spiroketal-substituted cyclic ketoenols” (Bayer CropScience AG, priority 2005, dated 2011).

What was measured:
[1] = system: monocotyledonous and dicotyledonous weed and crop plants; assay: Example V 2: Herbicidal Post-Emergence Action; type: in vivo; details: greenhouse, 320 g of a.i./ha, about 3 weeks
Protocol: (§1) Seeds of monocotyledonous and dicotyledonous weed and crop plants are placed into sandy loam in wood fibre pots, covered with soil and cultivated in a greenhouse under good growth conditions. 2-3 weeks after sowing, the test plants are treated at the one-leaf stage. The test compounds, formulated as wettable powders (WP), are then, in various dosages with a water application rate of 600 l/ha (converted), with 0.2% of wetting agent added, sprayed onto the green parts of the plants. After the test plants have been kept in the greenhouse under optimum growth conditions for about 3 weeks, the effect of the preparations is rated visually in comparison to untreated controls (herbicidal effect in percent (%): 100% effect=the plants have died, 0% effect=like control plants).

[2] = system: Lolium multiflorum; assay: Example V 2: Herbicidal Post-Emergence Action; type: in vivo; details: greenhouse, 320 g of a.i./ha, about 3 weeks
Protocol: as §1

[3] = system: Setaria viridis; assay: Example V 2: Herbicidal Post-Emergence Action; type: in vivo; details: greenhouse, 320 g of a.i./ha, about 3 weeks
Protocol: as §1

[4] = system: Echinocloa crus-galli; assay: Example V 2: Herbicidal Post-Emergence Action; type: in vivo; details: greenhouse, 320 g of a.i./ha, about 3 weeks
Protocol: as §1

[5] = system: Phaedon cochleariae; assay: Example N: Phaedon Test (spray treatment); type: in vivo; details: application rate 500 g/ha
Protocol: (§2) [table] To produce a suitable preparation of active compound, 1 part by weight of active compound is mixed with the stated amounts of solvents and emulsifier, and the concentrate is diluted with emulsifier-containing water to the desired concentration. Discs of Chinese cabbage (Brassica pekinensis) are sprayed with a preparation of active compound of the desired concentration and, after drying, populated with larvae of the mustard beetle (Phaedon cochleariae).

[6] = system: Nephotettix cincticeps; assay: Example F: Nephotettix Test (7:1); type: in vivo; details: concentration of 1000 ppm
Protocol: (§3) To produce a suitable preparation of active compound, 1 part by weight of active compound is mixed with the stated amounts of solvent and emulsifier, and the concentrate is diluted with emulsifier-containing water to the desired concentration.
Rice seedlings (Oryza sativa) are treated by being dipped into the preparation of active compound of the desired concentration and are populated with the green rice leaf hopper (Nephotettix cincticeps) while the leaves are still moist.
After the desired period of time, the kill in % is determined. 100% means that all leaf hoppers have been killed; 0% means that none of the leaf hoppers have been killed.

[7] = system: Plutella xylostella; assay: Example D: Plutella Test (7:1); type: in vivo; details: concentration of 1000 ppm
Protocol: as §3
Cabbage leaves (Brassica oleracea) are treated by being dipped into the preparation of active compound of the desired concentration and are populated with caterpillars of the diamond back moth (Plutella xylostella) while the leaves are still moist.
After the desired period of time, the kill in % is determined. 100% means that all caterpillars have been killed; 0% means that none of the caterpillars have been killed.

[8] = system: Test plants; assay: Example U: Pre-emergence Test; type: in vivo; details: greenhouse, 250 g of a.i./ha, after three weeks
Protocol: To produce a suitable preparation of active compound, 1 part by weight of active compound is mixed with the stated amount of solvent, the stated amount of emulsifier is added and the concentrate is diluted with water to the desired concentration.
Seeds of the test plants are sown in normal soil. After about 24 hours, the soil is sprayed with the preparation of active compound such that the particular amounts of active compound desired are applied per unit area. The concentration of the spray liquor is chosen such that the particular amounts of active compound desired are applied in 1000 l of water/ha.
After three weeks, the degree of damage to the plants is rated in % damage in comparison to the development of the untreated control.
The figures denote: • 0%=no effect (like untreated control) • 100%=total destruction

[9] = system: Meloidogyne incognita; assay: Example H: Meloidogyne Test (7:1); type: in vivo; details: concentration of 20 ppm
Protocol: (§4) To produce a suitable preparation of active compound, 1 part by weight of active compound is mixed with the stated amounts of solvent and emulsifier, and the concentrate is diluted with water to the desired concentration.
(§5) Vessels are filled with sand, solution of active compound, Meloidogyne incognita egg/larvae suspension and lettuce seeds. The lettuce seeds germinate and the plants develop. On the roots, galls are formed.
(§6) After the desired period of time, the nematicidal activity is determined in % by the formation of galls. 100% means that no galls have been found; 0% means that the number of galls on the treated plants corresponds to that of the untreated control.

[10] = system: Meloidogyne incognita; assay: Example K: Meloidogyne Test; type: in vivo; details: concentration of 20 ppm
Protocol: as §4, §5, §6

[11] = system: Meloidogyne incognita; assay: Example P: Meloidogyne Test (spray treatment); type: in vivo; details: concentration of 20 ppm
Protocol: To produce a suitable preparation of active compound, 1 part by weight of active compound is mixed with the stated amount of solvent, and the concentrate is diluted with water to the desired concentration.
as §5, §6

[12] = system: Phaedon cochleariae; assay: Example M: Phaedon cochleariae Larvae Test; type: in vivo; details: concentration of 100 ppm
Protocol: as §2, with “solvent” for “solvents”, “Cabbage leaves” for “Discs of Chinese cabbage”, “oleracea)” for “pekinensis)”, “treated by being dipped into the” for “sprayed with a”, “and are” for “and, after drying,”, “cochleariae) while the leaves are still moist.” for “cochleariae).”

[13] = system: cereal crop plants; assay: Profiling tests, herbicidal post-emergence action with safeners: container trials with cereal in a greenhouse, Mefenpyr 1 day prior to herbicide application; details: in vivo
Protocol: Test Description for Profiling Tests
2. Herbicidal Post-Emergence Action
Seeds of monocotyledonous and dicotyledonous weed and crop plants are placed into sandy loam in wood fibre pots or in plastic pots, covered with soil and cultivated in a greenhouse, during the vegetation period also outdoors outside of the greenhouse, under good growth conditions. 2-3 weeks after sowing, the test plants are treated at the one- to three-leaf stage. The test compounds, formulated as wettable powders (WP) or emulsifiable concentrates (EC) are, in various dosages with a water application rate of 300 l/ha (converted), with wetting agent (0.2 to 0.3%) added, sprayed onto the plants and the surface of the soil. […] after the treatment of the test plants, the effect of the preparations is rated visually in comparison to untreated controls (herbicidal effect in percent (%): 100% effect=the plants have died, 0% effect=like control plants). […]

SMILES: Cc1cc(C)c(C2=C(O)C3(CCC4(CC3)OC(C)C(C)O4)NC2=O)c(C)c1 (mixture of isomers) [Ex. I-1-a-7]
- herbicidal effect, Sinapis [1]: 60%
- herbicidal effect, Lolium [2]: 80%
- herbicidal effect, Setaria [3]: 80%
- herbicidal effect, Echinochloa [4]: 60%
- activity in % [5]: 100%

SMILES: Cc1cc(C)c(C2=C(O)C3(CCC4(CC3)OC(C)CC(C)O4)NC2=O)c(C)c1 (mixture of isomers) [Ex. I-1-a-21]
- herbicidal effect, Sinapis [1]: 70%
- herbicidal effect, Lolium [2]: 80%
- herbicidal effect, Setaria [3]: 90%
- herbicidal effect, Echinochloa [4]: 80%

SMILES: CCOC(=O)OC1=C(c2c(C)cc(C)cc2C)C(=O)NC12CCC1(CC2)OCC(C)O1 (mixture of isomers) [Ex. I-1-c-6]
- herbicidal effect, Sinapis [1]: 60%
- herbicidal effect, Lolium [2]: 90%
- herbicidal effect, Setaria [3]: 90%
- herbicidal effect, Echinochloa [4]: 80%
- activity in % [5]: 100%

SMILES: Cc1cc(C)c(C2=C(O)C3(CCC4(CC3)OCCO4)NC2=O)c(C)c1 [Ex. I-1-a-2]
- herbicidal effect, Sinapis [1]: 60%
- herbicidal effect, Lolium [2]: 70%
- herbicidal effect, Setaria [3]: 90%
- herbicidal effect, Echinochloa [4]: 80%
- activity (kill in %) [6]: 100%
- activity (kill in %) [7]: 100%

SMILES: Cc1cc(Cl)cc(C)c1C1=C(O)C2(CCC3(CC2)OCCO3)NC1=O [Ex. I-1-a-4]
- damage, Amaranthus ([8]; sub-table 1): 95%
- damage, Echinochloa ([8]; sub-table 1): 100%
- damage, Galium ([8]; sub-table 1): 70%
- damage, Setaria ([8]; sub-table 1): 100%
- damage, Sinapis ([8]; sub-table 1): 70%
- nematicidal activity in % (formation of galls) [9]: 95%

SMILES: Cc1ccc(C)c(C2=C(O)C3(CCC4(CC3)OCCCO4)NC2=O)c1 [Ex. I-1-a-12]
- nematicidal activity in % (formation of galls) [10]: 80%

SMILES: O=C1NC2(CCC3(CC2)OCCCO3)C(O)=C1c1cc(-c2ccc(Cl)cc2)ccc1Cl [Ex. I-1-a-15]
- damage, Sugar beet ([8]; crop plant, sub-table 3): 0%
- damage, Alopecurus ([8]; sub-table 3): 95%
- damage, Avena fatua ([8]; sub-table 3): 80%
- damage, Echinochloa ([8]; sub-table 3): 99%
- damage, Setaria ([8]; sub-table 3): 70%
- nematicidal activity in % (formation of galls) [11]: 100%

SMILES: Cc1cc(C)c(C2=C(O)C3(CCC4(CC3)OCCCO4)NC2=O)c(C)c1 [Ex. I-1-a-18]
- herbicidal effect, Lolium [2]: 80%
- herbicidal effect, Setaria [3]: 100%
- herbicidal effect, Echinochloa [4]: 90%
- activity in % [5]: 100%

SMILES: Cc1cc(Br)cc(C)c1C1=C(O)C2(CCC3(CC2)OCCCO3)NC1=O [Ex. I-1-a-19]
- herbicidal effect, Sinapis [1]: 70%
- herbicidal effect, Lolium [2]: 90%
- herbicidal effect, Setaria [3]: 90%
- herbicidal effect, Echinochloa [4]: 90%

SMILES: Cc1cc(C)c(C2=C(O)C3(CCC4(CC3)OCC(C)(C)CO4)NC2=O)c(C)c1 [Ex. I-1-a-23]
- activity (kill in %) [12]: 100%

SMILES: CCOC(=O)OC1=C(c2c(CC)cc(Cl)cc2OC)C(=O)NC12CCC1(CC2)OCCO1 [Ex. I-1-c-25]
- Summer barley observed (%) [13]: 50%

SMILES: Cc1cc(C)c(C2=C(O)C3(CCC4(CC3)OCCO4)OC2=O)c(C)c1 [Ex. I-2-a-2]
- herbicidal effect, Amaranthus [1]: 60%
- herbicidal effect, Sinapis [1]: 70%
- herbicidal effect, Lolium [2]: 90%
- herbicidal effect, Setaria [3]: 100%
- herbicidal effect, Echinochloa [4]: 80%
- activity (kill in %) [6]: 100%
- activity (kill in %) [7]: 100%

SMILES: Cc1cc(Cl)cc(C)c1C1=C(O)C2(CCC3(CC2)OCCCO3)OC1=O [Ex. I-2-a-6]
- herbicidal effect, Sinapis [1]: 60%
- herbicidal effect, Lolium [2]: 80%
- herbicidal effect, Setaria [3]: 80%
- herbicidal effect, Echinochloa [4]: 60%

SMILES: Cc1cc(C)c(C2=C(OC(=O)C(C)(C)C)C3(CCC4(CC3)OCCO4)OC2=O)c(C)c1 [Ex. I-2-b-2]
- activity (kill in %) [6]: 100%
- activity (kill in %) [7]: 100%
